Data on 16 molecules can be found in PubChem BioAssay (NCI).

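Tested at 5 concentrations; 48 h exposure; 96-well plates; endpoints linearly interpolated, else capped at highest concentration. Definition used: TGI = concentration required for complete inhibition of growth.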

Test systems include A549 NSCLC; HOP-92 NSCLC; HT29 colon; MDA-MB-435; NCI-H460 lung; PC-3 prostate; SNB-75 CNS; SR leukemia; BT-549 breast; KM12 colon.
Holding throughout (test): growth of human tumour cells (NCI), 48 h

For the molecule `N#Cc1[nH]c(=O)n(-c2ccc([N+](=O)[O-])cc2)c1N`, the TGI with A549 NSCLC, in the assay on HOP-92 NSCLC, in the assay on HT29 colon, with MDA-MB-435, in the assay with NCI-H460 lung and in the assay with PC-3 prostate was more than 10 µM throughout. For the same molecule, the TGI in the assay with SNB-75 CNS and in the assay with SR leukemia was more than 10 µM throughout.

Take `CC12CC3c4ccccc4CN1C3(c1ccccc1)OC2=O` (configuration not stated): the TGI in the assay on A549 NSCLC, in the assay with BT-549 breast, with HT29 colon, in the assay with KM12 colon, in the assay with MDA-MB-435 and in the assay with PC-3 prostate was more than 100 µM in each case. In addition, the TGI in the assay with SNB-75 CNS is more than 100 µM.

With `COc1c2nc(CCl)n(C)c(=O)c2c(OC)c2c(=O)n(C)c(CCl)nc12`, the TGI in the assay with A549 NSCLC was 13.3 µM; in the assay on BT-549 breast, 1.96 µM; with HOP-92 NSCLC it was more than 100 µM; in the assay with HT29 colon, 2.87 µM; in the assay on KM12 colon, 2.46 µM; in the assay on MDA-MB-435, 7.65 µM. Further, the results for the TGI with NCI-H460 lung, in the assay on PC-3 prostate and with SNB-75 CNS were 4.66 µM, 2.68 µM and 3.8 µM, respectively.

On to `c1cnc2c(c1)-n1cccc1C1(CCOCC1)NN2`, for which the TGI in the assay with A549 NSCLC, in the assay on HOP-92 NSCLC, with HT29 colon, in the assay on KM12 colon, in the assay with NCI-H460 lung and in the assay with SNB-75 CNS was more than 100 µM in each case. For the same molecule, the TGI with SR leukemia was more than 100 µM.

Turning to `O=C(NCCNCCO)N/N=C/c1cccc([N+](=O)[O-])c1`, the TGI with A549 NSCLC, with HOP-92 NSCLC, with HT29 colon, in the assay with KM12 colon, with NCI-H460 lung and in the assay on SNB-75 CNS was more than 100 µM in each case.

For the molecule `COc1c(C2(c3ccc(F)cc3)SCCCS2)c(=O)c1=O`, the TGI with A549 NSCLC, in the assay with BT-549 breast, with HOP-92 NSCLC, with HT29 colon, in the assay with KM12 colon and with MDA-MB-435 was more than 100 µM throughout. For the same molecule, the TGI in the assay on NCI-H460 lung, in the assay with PC-3 prostate and with SNB-75 CNS was more than 100 µM in each case.

In the case of `COc1ccc(NC(=S)NN=C(C)c2cccc(C(C)=NNC(=S)Nc3ccc(OC)cc3)n2)cc1`, the TGI in the assay with A549 NSCLC was more than 100 µM; in the assay on HOP-92 NSCLC it was more than 100 µM; in the assay with HT29 colon it was more than 100 µM; in the assay with KM12 colon it was 84.2 µM; in the assay on MDA-MB-435, more than 100 µM; in the assay on NCI-H460 lung, more than 100 µM. Also, the TGI in the assay with PC-3 prostate, in the assay on SNB-75 CNS and in the assay with SR leukemia was more than 100 µM each time.

On to `Nc1cc2c(cc1[N+](=O)[O-])[nH]c1c(-c3ccccc3)nccc12`, for which the TGI with A549 NSCLC turned out to be 69.6 µM; in the assay with HOP-92 NSCLC, 42.7 µM; in the assay with HT29 colon, 46.8 µM; in the assay on KM12 colon, 35.2 µM; in the assay on NCI-H460 lung, 39.2 µM; in the assay on SNB-75 CNS, 55.7 µM.

In the case of `Cc1cc(Br)c(N2C3=C(CC4=C2CCCC4=O)C(=O)CCC3)c(Br)c1`, the TGI with A549 NSCLC was more than 100 µM; in the assay with BT-549 breast, more than 100 µM; in the assay on HOP-92 NSCLC, 94.3 µM; in the assay with HT29 colon, more than 100 µM; in the assay on KM12 colon, more than 100 µM; with NCI-H460 lung, more than 100 µM. The TGI in the assay on PC-3 prostate, in the assay with SNB-75 CNS and with SR leukemia was more than 100 µM throughout.

On to `N=C(N)/N=C(/C=C/c1ccccc1)CC1OC(=O)c2ccccc21` (configuration not stated), for which the TGI in the assay with A549 NSCLC, in the assay on HT29 colon, in the assay with KM12 colon, with NCI-H460 lung, with SNB-75 CNS and with SR leukemia was more than 100 µM each time.

For the molecule `O=C1CC(NC(=O)C(F)(F)F)c2c(Br)sc(N3CCC(c4ccccc4)CC3)c21` (configuration not stated), the TGI with A549 NSCLC was more than 100 µM; in the assay with BT-549 breast, more than 100 µM; with HOP-92 NSCLC, 41.1 µM; in the assay on HT29 colon it was more than 100 µM; in the assay with KM12 colon it was more than 100 µM; in the assay with MDA-MB-435 it was more than 100 µM. The TGI with NCI-H460 lung, with PC-3 prostate and with SNB-75 CNS was more than 100 µM in each case.

As to `COc1ccc(-n2sc3ncc(-c4ccccc4)cc3c2=O)cc1`, the TGI in the assay with A549 NSCLC, with BT-549 breast, in the assay on HOP-92 NSCLC, with KM12 colon, with MDA-MB-435 and with NCI-H460 lung was more than 100 µM in each case. In addition, the TGI with PC-3 prostate and with SNB-75 CNS was more than 100 µM throughout.

For the molecule `Cc1ccc(OP2(=O)Oc3ccc4ccccc4c3CN2c2ccc(Cl)cc2)cc1C` (configuration not stated), the TGI in the assay with A549 NSCLC, with HOP-92 NSCLC, with HT29 colon, in the assay on KM12 colon, in the assay with NCI-H460 lung and in the assay on SNB-75 CNS was more than 100 µM each time.

As for `COc1ccc(-n2c(CCCC(=O)O)nc3c2C(=O)c2ccccc2C3=O)cc1`, the TGI in the assay on A549 NSCLC was more than 100 µM; with BT-549 breast, more than 100 µM; with HOP-92 NSCLC, more than 100 µM; with KM12 colon it was more than 100 µM; in the assay with MDA-MB-435, 78.9 µM; in the assay on NCI-H460 lung it was more than 100 µM. Besides, the TGI in the assay with SNB-75 CNS and in the assay with SR leukemia was more than 100 µM each time.

Turning to `Cc1ccc(-c2cc(-c3ccco3)nc(N)n2)o1`, the TGI in the assay with A549 NSCLC, in the assay on HT29 colon, in the assay with KM12 colon, in the assay with NCI-H460 lung, in the assay on SNB-75 CNS and in the assay on SR leukemia was more than 100 µM each time.

Consider `C=C(NC(=O)C(=C)NC(=O)c1csc(C2=NC3c4csc(n4)C4NC(=O)c5csc(n5)C(C(C)(O)C(C)O)NC(=O)C5CSC(=N5)/C(=C/C)NC(=O)C(C(C)O)NC(=O)c5csc(n5)C3(CC2)NC(=O)C(C)NC(=O)C(=C)NC(=O)C(=C)NC(=O)C(C(C)C)NC2C=Cc3c(C(C)O)cc(nc3C2O)C(=O)OC4C)n1)C(N)=O` (configuration not stated), for which the TGI in the assay on A549 NSCLC is more than 48.5 µM; in the assay on BT-549 breast it was 7.88 µM; with HOP-92 NSCLC it was 40.1 µM; with HT29 colon it was 16 µM; in the assay on KM12 colon it was more than 100 µM; in the assay with MDA-MB-435, more than 52.8 µM. In addition, the TGI with NCI-H460 lung is 59.7 µM; with PC-3 prostate, more than 100 µM; with SNB-75 CNS it was more than 100 µM.
